Measured values reported in article PMC3907542 (PLoS ONE, 2014).
Several values for one entry are separate records, joined by “and”; a condition that tells them apart may be missing. Equal values may be shown once. Read-outs that look alike come from different tables or passages of the source.

What was measured:
CYP3A [1] = experiment: in vitro; details: rat, rat liver microsomes, pH 7.4, probe nifedipine
Procedure: (§1) The preparation of rat liver microsome (RLM) suspensions were performed as previously reported [38]. […] Briefly, the incubation mixtures (total volume 0.2 ml) contained microsomal protein [...

[2] = Pharmacokinetics of baicalin in rats (plasma Cmax); assay type: in vivo; details: Sprague Dawley, rat, iv, read-out: C max of baicalin
Procedure: All pharmacokinetic data were obtained from 12 animals.
The concentration of baicalin in the blood samples was determined using a slightly modified high-performance liquid chromatography (HPLC) protocol with UV detection at 278 nm. Briefly, 100 µl methanol was added to 25 µl of the blood sample. […] The quantitation limits of baicalin in the rat plasma were 5.86 mg/L.

rat plasma proteins = experiment: Plasma protein binding of nifedipine in vitro with or without baicalin (ultrafiltration); assay type: in vitro ADME; details: double reciprocal plot, baicalin 250-2000 mg/L
CYP3A [3] = details: Lineweaver-Burk plot, RLMs, nifedipine as substrate
Procedure: as §1

plasma proteins = tested on: plasma proteins; set-up: method as in earlier work; details: plasma protein binding; ref 1 (Tang Y et al); cited from earlier work

O=C(O)[C@H]1O[C@@H](Oc2cc3oc(-c4ccccc4)cc(=O)c3c(O)c2O)[C@H](O)[C@@H](O)[C@@H]1O [baicalin, 5,6-Dihydroxy-flavone-7-O-glucuronide]
Ki at 30 min (CYP3A [1]): 146 µM and 64.9 µg/mL
Cmax ([2]; baicalin 0.225 g/kg i.v.): 755 µg/mL
Cmax ([2]; baicalin 0.45 g/kg i.v.): 1280 µg/mL
type of interaction between nifedipine and baicalin for rat plasma proteins (rat plasma proteins): competitive
type of inhibition of CYP3A (CYP3A [3]): competitive
association constant (KA) (plasma proteins): 121000 L/mol
